Measurements as given in patent US8586751B2, “Nicotinamide compounds useful as kinase modulators” (Bristol-Myers Squibb Company, priority 2009, dated 2013).

Experiments:
human recombinant Btk = biological target: T1, human recombinant Btk (Homo sapiens, UniProt Q06187); assay: Human Recombinant Btk Enzyme Assay (LLE_BTK); type: biochemical
T1 construct: purchased Invitrogen Corporation
Experimental: Human Recombinant Btk Enzyme Assay
To V-bottom 384-well plates were added test compounds, human recombinant Btk (1 nM, Invitrogen Corporation), fluoresceinated peptide (1.5 μM), ATP (20 μM), and assay buffer (20 mM HEPES pH 7.4, 10 mM MgCl2, 0.015% Brij35 and 4 mM DTT in 1.6% DMSO), with a final volume of 30 μL. After incubating at room temperature for 60 min, the reaction was terminated by adding 45 μl of 35 mM EDTA to each sample. The reaction mixture was analyzed on the Caliper LABCHIP® 3000 (Caliper, Hopkinton, Mass.) by electrophoretic separation of the fluorescent substrate and phosphorylated product. Inhibition data were calculated by comparison to no enzyme control reactions for 100% inhibition and no inhibitor controls for 0% inhibition. Dose response curves were generated to determine the concentration required inhibiting 50% of kinase activity (IC50). Compounds were dissolved at 10 mM in dimethylsulfoxide (DMSO) and evaluated at eleven concentrations.
Using this assay, the following IC50 values derived by non-linear regression analysis were determined and compared to those values of certain compounds in U.S. Publication No. 2007/078136 and U.S. Publication No. 2008/045536.

[1] = tested on: Ramos B cells with beta-lactamase reporter gene under control of an NFAT response element; assay: NFAT-bla RA1 Reporter Assay (Ramos-NFAT); type: cell-based, human; settings: Homo sapiens, Ramos, read-out: IMM Ramos-NFAT (IC50)
Experimental: NFAT-bla RA1 Reporter Assay
Ramos B cells containing a stable integration of a beta-lactamase reporter gene under the control of an NFAT response element (NFAT-bla RA1, Invitrogen, K1434) at a density of 100×10^3 cells/well were incubated with test compounds at 37° C. for 30 min prior to stimulation with F(ab′)2 anti-human IgM (Jackson ImmunoResearch, 109-006-129) at 2.5 μg/ml for 4.5 hrs at 37° C. After stimulation, LiveBLAzer-FRET B/G substrate (CCF2/AM, or CCF4/AM, Invitrogen) was added to each well and incubated for 90 min at room temperature in the dark. Assay plates were read on an LJL Analyst, with raw emission values subtracted from a media-only blank containing substrate in assay media (no cells). The ratios of 460 nm/530 nm emission (405 nm excitation) were used to calculate the amount of stimulation.

T1 sequence (Q06187 whole entry): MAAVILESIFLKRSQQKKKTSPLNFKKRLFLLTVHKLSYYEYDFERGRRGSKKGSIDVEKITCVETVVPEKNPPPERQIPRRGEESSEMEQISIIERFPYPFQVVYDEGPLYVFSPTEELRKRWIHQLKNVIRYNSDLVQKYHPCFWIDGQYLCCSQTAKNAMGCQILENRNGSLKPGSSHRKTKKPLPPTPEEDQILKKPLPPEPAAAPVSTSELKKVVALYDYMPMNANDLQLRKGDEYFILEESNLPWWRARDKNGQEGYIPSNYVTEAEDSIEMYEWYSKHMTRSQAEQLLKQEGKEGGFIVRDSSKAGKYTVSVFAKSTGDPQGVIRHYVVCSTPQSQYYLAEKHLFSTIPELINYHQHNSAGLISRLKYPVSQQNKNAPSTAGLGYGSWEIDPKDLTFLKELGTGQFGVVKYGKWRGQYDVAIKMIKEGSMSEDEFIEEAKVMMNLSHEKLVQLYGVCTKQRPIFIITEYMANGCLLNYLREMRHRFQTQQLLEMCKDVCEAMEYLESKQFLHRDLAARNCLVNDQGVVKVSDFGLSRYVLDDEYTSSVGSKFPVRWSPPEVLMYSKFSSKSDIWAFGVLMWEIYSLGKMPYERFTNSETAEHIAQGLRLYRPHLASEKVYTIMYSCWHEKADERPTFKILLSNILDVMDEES

| SMILES | IC50 (human recombinant Btk) [nM] | IC50 [1] [nM] |
| --- | --- | --- |
| CN1CCCC(c2ccc(Nc3nc(N4CCC[C@@H](NC(=O)Nc5nnc(C(C)(C)C)s5)C4)c(F)cc3C(N)=O)cc2)C1 (stereo partly shown) [Example 561] | 0.9 | 140 |
| CN1CCCC(c2ccc(Nc3nc(N4CCC[C@@H](NC(=O)Nc5ncc(F)s5)C4)c(F)cc3C(N)=O)cc2)C1 (stereo partly shown) [Example 564] | 1 | 100 |
| CN1CCC(C)(c2ccc(Nc3nc(N4CCC[C@@H](N5CCCC5=O)C4)c(F)cc3C(N)=O)cc2)CC1 [Example 566] | 3 | 90 |
| CN1CCC(O)(c2ccc(Nc3nc(N4CCC[C@@H](N5CCCC5=O)C4)c(F)cc3C(N)=O)cc2)C(C)(C)C1 (stereo partly shown) [Example 568] | 1 | 120 |
| CN1CCC(C)(c2ccc(Nc3nc(N4CCCC5(CC(c6ccccc6)=NO5)C4)c(F)cc3C(N)=O)cc2)CC1 (stereo not shown) [Example 571] | 2 | 150 |
